Results reported in the SangsterLogP compilation.

| logP | Compound |
| --- | --- |
| 4.09 | CC(C)=C/C=C/C(=O)N1Cc2cc(OCCc3coc(/C=C/CCCC(C)C)n3)ccc2CC1C(=O)O (configuration not stated) |
| 3.48 | CCOCCC(=O)N1Cc2cc(OCCc3coc(/C=C/CCCC(C)C)n3)ccc2CC1C(=O)O (configuration not stated) |
| 3.68 | C/C=C/C=C/C(=O)N1Cc2cc(OCCc3nc(/C=C/C(CC)CC)oc3C)ccc2C[C@H]1C(=O)O |
| 4.34 | CCCCCC(=O)N1Cc2cc(OCCc3coc(/C=C/CCCC(C)C)n3)ccc2CC1C(=O)O (configuration not stated) |
| 3.76 | C=CCCC(=O)N1Cc2cc(OCCc3nc(/C=C/CCC(C)C)oc3C)ccc2C[C@H]1C(=O)O |
| 3.1 | C/C=C/C=C/C(=O)N1Cc2cc(OCCc3nc(/C=C/C(C)(C)C)oc3C)ccc2C[C@H]1C(=O)O |
| 3.76 | CC(C)CCC/C=C/c1nc(CCOc2ccc3c(c2)CN(C(=O)/C=C/c2ccco2)C(C(=O)O)C3)co1 (configuration not stated) |
| 3.59 | C/C=C/C=C/C(=O)N1Cc2cc(OCCc3nc(/C=C/CC(C)(C)C)oc3C)ccc2C[C@H]1C(=O)O |
| 3.84 | C/C=C/C=C/C(=O)N1Cc2cc(OCCc3nc(/C=C/C(C)CCC)oc3C)ccc2C[C@H]1C(=O)O (some centres not stated) |
| 3.79 | C/C=C/C=C/C(=O)N1Cc2cc(OCCc3nc(CCCCC(C)C)oc3C)ccc2C[C@H]1C(=O)O |
| 3.23 | C/C=C/C=C/C(=O)N1Cc2cc(OCCc3nc(C=CCC(C)C)oc3C)ccc2CC1C(=O)O (configuration not stated) |
| 4.04 | CCC/C=C/C(=O)N1Cc2cc(OCCc3coc(/C=C/CCCC(C)C)n3)ccc2CC1C(=O)O (configuration not stated) |
| 3.95 | CC(C)CCC/C=C/c1nc(CCOc2ccc3c(c2)CN(C(=O)/C=C/c2cccs2)C(C(=O)O)C3)co1 (configuration not stated) |
| 4.03 | C=CCCCC(=O)N1Cc2cc(OCCc3coc(/C=C/CCCC(C)C)n3)ccc2CC1C(=O)O (configuration not stated) |
| 2.77 | C/C=C/C=C/C(=O)N1Cc2cc(OCCc3nc(/C=C/C(C)C)oc3C)ccc2C[C@H]1C(=O)O |
| 2.75 | C/C=C/C=C/C(=O)N1Cc2cc(OCCc3nc(/C(=C/C)CC)oc3C)ccc2C[C@H]1C(=O)O |
| 3.33 | CCC(O)/C=C/C(=O)N1Cc2cc(OCCc3coc(/C=C/CCCC(C)C)n3)ccc2CC1C(=O)O (configuration not stated) |
| 2.88 | C/C=C/C=C/C(=O)N1Cc2cc(OCCc3nc(/C(C)=C/CC)oc3C)ccc2C[C@H]1C(=O)O |
| 3.52 | C/C=C/C=C/C(=O)N1Cc2cc(OCCc3nc(/C=C/C(C)(C)CC)oc3C)ccc2C[C@H]1C(=O)O |
| 4.1 | C/C=C/C=C/C(=O)N1Cc2cc(OCCc3nc(/C=C/CCCC(C)C)oc3C)ccc2CC1C(=O)O (configuration not stated) |
| 3.76 | Cc1oc(/C=C/CCC(C)C)nc1CCOc1ccc2c(c1)CN(C(=O)/C=C/c1ccco1)[C@H](C(=O)O)C2 |
| 3.69 | CC(C)CCC/C=C/c1nc(CCOc2ccc3c(c2)CN(C(=O)/C=C/C2CC2)C(C(=O)O)C3)co1 (configuration not stated) |
| 4.29 | C/C=C/C=C/C(=O)N1Cc2cc(OCCc3nc(/C(C)=C/CCC(C)C)oc3C)ccc2C[C@H]1C(=O)O |
| 3.81 | C/C=C/C=C/C(=O)N1Cc2cc(OCCc3nc(/C=C/CCC(C)C)oc3C)ccc2C[C@H]1C(=O)O |
| 3.52 | CCOC/C=C/C(=O)N1Cc2cc(OCCc3coc(/C=C/CCCC(C)C)n3)ccc2CC1C(=O)O (configuration not stated) |
| 3.09 | Cc1oc(/C=C/CCC(C)C)nc1CCOc1ccc2c(c1)CN(C(=O)/C=C/C=C/CO)C(C(=O)O)C2 (configuration not stated) |
| 3.56 | CCO/C=C/C(=O)N1Cc2cc(OCCc3coc(/C=C/CCCC(C)C)n3)ccc2CC1C(=O)O (configuration not stated) |
